Measurements: PubChem BioAssay (NCI)
“And” between values parts separate entries of the source, which are not always exact repeats. Equal entries are not always repeated.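 96-well plates; 48 h exposure; 5 concentrations. Endpoints by linear interpolation between flanking doses. Not reached: highest tested concentration assigned. Abbreviation: GI50, concentration required for 50% inhibition of growth. At the TGI there is no net growth.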

Tests used:
Assay in all cases: NCI tumour cell line growth inhibition, 48 h
786-0 renal = tested on: 786-0 renal
A498 renal = tested on: A498 renal
A549 NSCLC = tested on: A549 NSCLC
ACHN renal = tested on: ACHN renal
BT-549 breast = tested on: BT-549 breast
CAKI-1 renal = tested on: CAKI-1 renal
CCRF-CEM leukemia = tested on: CCRF-CEM leukemia
COLO 205 colon = tested on: COLO 205 colon
DU-145 prostate = tested on: DU-145 prostate
EKVX NSCLC = tested on: EKVX NSCLC
HCC-2998 colon = tested on: HCC-2998 colon
HCT-116 colon = tested on: HCT-116 colon
HCT-15 colon = tested on: HCT-15 colon
HL-60(TB) leukemia = tested on: HL-60(TB) leukemia
HOP-62 NSCLC = tested on: HOP-62 NSCLC
HOP-92 NSCLC = tested on: HOP-92 NSCLC
HS 578T breast = tested on: HS 578T breast
HT29 colon = tested on: HT29 colon
IGROV1 ovarian = tested on: IGROV1 ovarian
K-562 leukemia = tested on: K-562 leukemia
KM12 colon = tested on: KM12 colon
LOX IMVI melanoma = tested on: LOX IMVI melanoma
M14 melanoma = tested on: M14 melanoma
MALME-3M melanoma = tested on: MALME-3M melanoma
MCF7 breast = tested on: MCF7 breast
MDA-MB-231 breast = tested on: MDA-MB-231 breast
MDA-MB-435 = tested on: MDA-MB-435
MDA-N = tested on: MDA-N
MOLT-4 leukemia = tested on: MOLT-4 leukemia
NCI-H226 lung = tested on: NCI-H226 lung
NCI-H23 lung = tested on: NCI-H23 lung
NCI-H460 lung = tested on: NCI-H460 lung
NCI-H522 lung = tested on: NCI-H522 lung
NCI/ADR-RES ovarian = tested on: NCI/ADR-RES ovarian
OVCAR-3 ovarian = tested on: OVCAR-3 ovarian
OVCAR-4 ovarian = tested on: OVCAR-4 ovarian
OVCAR-5 ovarian = tested on: OVCAR-5 ovarian
OVCAR-8 ovarian = tested on: OVCAR-8 ovarian
PC-3 prostate = tested on: PC-3 prostate
RPMI-8226 leukemia = tested on: RPMI-8226 leukemia
RXF 393 renal = tested on: RXF 393 renal
SF-268 CNS = tested on: SF-268 CNS
SF-295 CNS = tested on: SF-295 CNS
SF-539 CNS = tested on: SF-539 CNS
SK-MEL-2 melanoma = tested on: SK-MEL-2 melanoma
SK-MEL-28 melanoma = tested on: SK-MEL-28 melanoma
SK-MEL-5 melanoma = tested on: SK-MEL-5 melanoma
SK-OV-3 ovarian = tested on: SK-OV-3 ovarian
SN12C renal = tested on: SN12C renal
SNB-19 CNS = tested on: SNB-19 CNS
SNB-75 CNS = tested on: SNB-75 CNS
SR leukemia = tested on: SR leukemia
SW-620 colon = tested on: SW-620 colon
T-47D breast = tested on: T-47D breast
TK-10 renal = tested on: TK-10 renal
U251 CNS = tested on: U251 CNS
UACC-257 melanoma = tested on: UACC-257 melanoma
UACC-62 melanoma = tested on: UACC-62 melanoma
UO-31 renal = tested on: UO-31 renal

What does the source list for O=C(O)c1cc2cc(OCc3ccccc3)ccc2[nH]1?
TGI (786-0 renal): > 100 µM; GI50 (A498 renal): 35.1 µM; TGI (A498 renal): > 100 µM; TGI (A549 NSCLC): > 100 µM; TGI (ACHN renal): > 100 µM; GI50 (BT-549 breast): 59.1 µM; TGI (BT-549 breast): > 100 µM; GI50 (CAKI-1 renal): > 84.2 µM; TGI (CAKI-1 renal): > 100 µM; TGI (CCRF-CEM leukemia): > 100 µM; TGI (COLO 205 colon): > 100 µM; TGI (DU-145 prostate): > 100 µM; TGI (EKVX NSCLC): > 100 µM; TGI (HCC-2998 colon): > 100 µM; TGI (HCT-116 colon): > 100 µM; TGI (HCT-15 colon): > 100 µM; TGI (HL-60(TB) leukemia): > 100 µM; TGI (HOP-62 NSCLC): > 100 µM; GI50 (HOP-92 NSCLC): 20.7 µM; TGI (HOP-92 NSCLC): 92.4 µM and > 100 µM; GI50 (HS 578T breast): > 85 µM; TGI (HS 578T breast): 77.4 µM and > 100 µM; GI50 (HT29 colon): > 100 µM; TGI (HT29 colon): > 100 µM; GI50 (IGROV1 ovarian): 52.4 µM; TGI (IGROV1 ovarian): > 100 µM; TGI (K-562 leukemia): > 100 µM; TGI (KM12 colon): > 100 µM; TGI (LOX IMVI melanoma): > 100 µM; TGI (M14 melanoma): > 100 µM; GI50 (MALME-3M melanoma): 0.198 µM; TGI (MALME-3M melanoma): 0.762 µM and 1.56 µM; GI50 (MCF7 breast): > 100 µM; TGI (MCF7 breast): > 100 µM; TGI (MDA-MB-231 breast): > 100 µM; TGI (MDA-MB-435): > 100 µM; TGI (MDA-N): > 100 µM; TGI (MOLT-4 leukemia): > 100 µM; GI50 (NCI-H226 lung): > 100 µM; TGI (NCI-H226 lung): 93.1 µM and > 100 µM; TGI (NCI-H23 lung): > 100 µM; TGI (NCI-H460 lung): > 100 µM; TGI (NCI-H522 lung): > 100 µM; TGI (NCI/ADR-RES ovarian): > 100 µM; TGI (OVCAR-3 ovarian): > 100 µM; GI50 (OVCAR-4 ovarian): > 100 µM; TGI (OVCAR-4 ovarian): > 100 µM; TGI (OVCAR-5 ovarian): > 100 µM; TGI (OVCAR-8 ovarian): > 100 µM; TGI (PC-3 prostate): > 100 µM; TGI (RPMI-8226 leukemia): > 100 µM; TGI (RXF 393 renal): > 100 µM; TGI (SF-268 CNS): > 100 µM; TGI (SF-295 CNS): > 100 µM; TGI (SF-539 CNS): > 100 µM; GI50 (SK-MEL-2 melanoma): > 100 µM; TGI (SK-MEL-2 melanoma): > 100 µM; GI50 (SK-MEL-28 melanoma): 8.32 µM; TGI (SK-MEL-28 melanoma): 61.7 µM and > 100 µM; TGI (SK-MEL-5 melanoma): > 100 µM; TGI (SK-OV-3 ovarian): > 100 µM; TGI (SN12C renal): > 100 µM; GI50 (SNB-19 CNS): > 100 µM; TGI (SNB-19 CNS): > 100 µM; GI50 (SNB-75 CNS): 34.2 µM; TGI (SNB-75 CNS): > 100 µM; TGI (SR leukemia): > 100 µM; TGI (SW-620 colon): > 100 µM; TGI (T-47D breast): > 100 µM; TGI (TK-10 renal): > 100 µM; TGI (U251 CNS): > 100 µM; GI50 (UACC-257 melanoma): > 74 µM; TGI (UACC-257 melanoma): > 100 µM; TGI (UACC-62 melanoma): > 100 µM; GI50 (UO-31 renal): 1.92 µM; TGI (UO-31 renal): > 100 µM

Cc1cc2c(C(C)C)c(O)c(O)c(C=NCC3CCCN4CCCCC34)c2cc1-c1cc2c(C=NCC3CCCN4CCCCC34)c(O)c(O)c(C(C)C)c2cc1C (stereo not given) was tested. Which TGI (786-0 renal) did it give?
The TGI was > 67.9 µM.

And the TGI (A498 renal)?
Its TGI is > 61.7 µM.

What about the TGI (A549 NSCLC) of the same compound?
The TGI was > 75.1 µM.

What about the TGI (ACHN renal) of the same compound?
Its TGI is 17.9 µM.

And the TGI (BT-549 breast)?
Its TGI is 36.4 µM.

What about the TGI (CAKI-1 renal) of the same compound?
The TGI was 14.6 µM.

And the TGI (CCRF-CEM leukemia)?
Its TGI is 7.75 µM.

What about the TGI (COLO 205 colon) of the same compound?
The TGI was 12.3 µM.

And the TGI (DU-145 prostate)?
The TGI was > 64.3 µM.

And the TGI (EKVX NSCLC)?
Its TGI is 31.8 µM.

And the TGI (HCC-2998 colon)?
Its TGI is 46.3 µM.

What about the TGI (HCT-116 colon) of the same compound?
The TGI was > 100 µM.

And the TGI (HCT-15 colon)?
Its TGI is 41.3 µM.

What about the TGI (HL-60(TB) leukemia) of the same compound?
The TGI was 9.62 µM.

And the TGI (HOP-62 NSCLC)?
Its TGI is > 38.7 µM.

What about the TGI (HOP-92 NSCLC) of the same compound?
The TGI was > 100 µM.

And the TGI (HS 578T breast)?
Its TGI is 54.5 µM.

What about the TGI (HT29 colon) of the same compound?
Its TGI is 13.3 µM.

What about the TGI (IGROV1 ovarian) of the same compound?
The TGI was 21.6 µM.

What about the TGI (K-562 leukemia) of the same compound?
Its TGI is 38.2 µM.

What about the TGI (KM12 colon) of the same compound?
Its TGI is 17.7 µM.

What about the TGI (LOX IMVI melanoma) of the same compound?
The TGI was > 49.1 µM.

And the TGI (M14 melanoma)?
Its TGI is 33.9 µM.

What about the TGI (MALME-3M melanoma) of the same compound?
The TGI was 30.2 µM.

And the TGI (MCF7 breast)?
Its TGI is 37 µM.

What about the TGI (MDA-MB-231 breast) of the same compound?
Its TGI is 14.7 µM.

What about the TGI (MDA-MB-435) of the same compound?
The TGI was 25.8 µM.

And the TGI (MDA-N)?
Its TGI is 20.9 µM.

And the TGI (MOLT-4 leukemia)?
The TGI was 20 µM.

What about the TGI (NCI-H226 lung) of the same compound?
Its TGI is 43.2 µM.

What about the TGI (NCI-H23 lung) of the same compound?
The TGI was 27.1 µM.

And the TGI (NCI-H460 lung)?
The TGI was 38.7 µM.

And the TGI (NCI-H522 lung)?
The TGI was 11.3 µM.

What about the TGI (NCI/ADR-RES ovarian) of the same compound?
The TGI was 20.6 µM.

And the TGI (OVCAR-3 ovarian)?
Its TGI is 29 µM.

And the TGI (OVCAR-4 ovarian)?
Its TGI is 43.3 µM.

What about the TGI (OVCAR-5 ovarian) of the same compound?
The TGI was 38.8 µM.

What about the TGI (OVCAR-8 ovarian) of the same compound?
The TGI was 19 µM.

What about the TGI (PC-3 prostate) of the same compound?
Its TGI is 26.3 µM.

What about the TGI (RPMI-8226 leukemia) of the same compound?
The TGI was 58.5 µM.

What about the TGI (RXF 393 renal) of the same compound?
The TGI was 22.6 µM.

What about the TGI (SF-268 CNS) of the same compound?
Its TGI is 19.1 µM.

What about the TGI (SF-295 CNS) of the same compound?
The TGI was 25.9 µM.

What about the TGI (SF-539 CNS) of the same compound?
The TGI was 85.9 µM.

What about the TGI (SK-MEL-2 melanoma) of the same compound?
Its TGI is 31.5 µM.

What about the TGI (SK-MEL-28 melanoma) of the same compound?
Its TGI is 39.5 µM.

What about the TGI (SK-MEL-5 melanoma) of the same compound?
The TGI was 15.5 µM.

What about the TGI (SK-OV-3 ovarian) of the same compound?
Its TGI is 18.1 µM.

And the TGI (SN12C renal)?
Its TGI is 17.1 µM.

What about the TGI (SNB-19 CNS) of the same compound?
Its TGI is 69.9 µM.

What about the TGI (SNB-75 CNS) of the same compound?
The TGI was 31.3 µM.

And the TGI (SR leukemia)?
Its TGI is > 100 µM.

What about the TGI (SW-620 colon) of the same compound?
Its TGI is > 56.1 µM.

And the TGI (T-47D breast)?
The TGI was > 31 µM.

And the TGI (TK-10 renal)?
The TGI was 32.5 µM.

And the TGI (U251 CNS)?
The TGI was 21.5 µM.

What about the TGI (UACC-257 melanoma) of the same compound?
Its TGI is 51.9 µM.

What about the TGI (UACC-62 melanoma) of the same compound?
Its TGI is 39.3 µM.

What about the TGI (UO-31 renal) of the same compound?
The TGI was > 45.5 µM.
